Molecules are shown by their SMILES.

In one experiment the test system is VEEV TC83. Description: microbe, parasite or virus in culture. The following applies: Venezuelan equine encephalitis virus, Vero 76, 48 h, read-out: VEEV TC83 EC50 nM. It counts as cell-based.
The test system of a further experiment is WEEV California. Description: microbe, parasite or virus in culture. It counts as cell-based. Conditions: Western equine encephalitis virus, Vero 76, 48 h, read-out: WEEV California EC50 nM.

With `COc1ccc(-n2c(-c3ccccn3)nc3c(-c4ccc(C)nc4)cc(C#N)cc3c2=O)cc1F` [Example 196, 3-(3-fluoro-4-methoxyphenyl)-8-(6-methylpyridin-3-yl)-4-oxo-2-(pyridin-2-yl)-3,4-dihydroquinazoline-6-carbonitrile], the EC50 in the experiment with VEEV TC83 and in the experiment on WEEV California was over 1000 nM in each case.

For the compound `COc1ccc(-n2c([C@@H]3C[C@H](C(F)(F)F)CN3)nc3c(-c4ccc(C)nc4)cc(C#N)cc3c2=O)cc1F` (racemic) [Example 190, cis-(±)-3-(3-fluoro-4-methoxyphenyl)-8-(6-methylpyridin-3-yl)-4-oxo-2-((2S,4S)-4-(trifluoromethyl)pyrrolidin-2-yl)-3,4-dihydroquinazoline-6-carbonitrile], the 50% effective concentration (EC50) with VEEV TC83 lay in the range of 1 to 50 nM.

Take `COc1ccc(-n2c([C@H]3CCCN3)nc3ccc(C#N)c(F)c3c2=O)cc1` [Example 73, (R)-5-fluoro-3-(4-methoxyphenyl)-4-oxo-2-(pyrrolidin-2-yl)-3,4-dihydroquinazoline-6-carbonitrile]: the EC50 with VEEV TC83 and in the experiment on WEEV California was over 1000 nM in each case.

`Cc1cc(-c2cc(C#N)cc3c(=O)n(-c4cc(F)c(N5CC6(COC6)C5)c(F)c4)c(C4CCCN4)nc23)cc(C)n1` (stereo not drawn) [Example 163, 3-(3,5-difluoro-4-(2-oxa-6-azaspiro[3.3]heptan-6-yl)phenyl)-8-(2,6-dimethylpyridin-4-yl)-4-oxo-2-(pyrrolidin-2-yl)-3,4-dihydroquinazoline-6-carbonitrile]: the EC50 in the experiment with VEEV TC83 and in the experiment with WEEV California was over 1000 nM in each case.

Regarding `COc1ccc(-n2c([C@H]3CCCN3)nc3c(Br)cc(C#N)cc3c2=O)cc1F` [Example 96, (R)-8-bromo-3-(3-fluoro-4-methoxyphenyl)-4-oxo-2-(pyrrolidin-2-yl)-3,4-dihydroquinazoline-6-carbonitrile], the half-maximal effective concentration (EC50) in the experiment on VEEV TC83 and with WEEV California was 1 to 50 nM each time.

As to `COc1ccc(-n2c([C@H]3CCCN3)nc3cc(F)c(C#N)cc3c2=O)cc1` [Example 34, (R)-7-fluoro-3-(4-methoxyphenyl)-4-oxo-2-(pyrrolidin-2-yl)-3,4-dihydroquinazoline-6-carbonitrile], the EC50 in the experiment on VEEV TC83 and with WEEV California was 51 to 150 nM in each case.

`COc1cccc(-n2c(C3CCCN3)nc3ccc([N+](=O)[O-])cc3c2=O)c1` (stereo not drawn) [Example 32, 3-(3-methoxyphenyl)-6-nitro-2-(pyrrolidin-2-yl)quinazolin-4 (3H)-one]: the EC50 in the experiment with VEEV TC83 and in the experiment on WEEV California was over 1000 nM each time.

Take `COc1c(F)cc(-n2c(C3CCCN3)nc3c(-c4ccc(C#CCO)cc4)cc(C#N)cc3c2=O)cc1F` (stereo not drawn) [Example 169, 3-(3,5-difluoro-4-methoxyphenyl)-8-(4-(3-hydroxyprop-1-yn-1-yl)phenyl)-4-oxo-2-(pyrrolidin-2-yl)-3,4-dihydroquinazoline-6-carbonitrile]: the 50% effective concentration (EC50) in the experiment with VEEV TC83 and with WEEV California was 51 to 150 nM in each case.

For `O=c1c2cc([N+](=O)[O-])ccc2nc([C@H]2CCCN2)n1-c1ccccc1` [Example 2, (R)-6-nitro-3-phenyl-2-(pyrrolidin-2-yl) quinazolin-4 (3H)-one], the EC50 with VEEV TC83 lay in the range of 1 to 50 nM; with WEEV California it was 51 to 150 nM.

As for `COc1ccc(-n2c(C3CCCN3)nc3ccc([N+](=O)[O-])cc3c2=O)cc1` (stereo not drawn) [Example 8, 3-(4-methoxyphenyl)-6-nitro-2-(pyrrolidin-2-yl) quinazolin-4 (3H)-one], the concentration giving a half-maximal response (EC50) in the experiment with VEEV TC83 and with WEEV California was 1 to 50 nM throughout.

Turning to `N#Cc1ccc(-n2c([C@H]3CCCN3)nc3ccc([N+](=O)[O-])cc3c2=O)cc1` [Example 20, (R)-4-(6-nitro-4-oxo-2-(pyrrolidin-2-yl)quinazolin-3 (4H)-yl)benzonitrile], the concentration giving a half-maximal response (EC50) was 1 to 50 nM in the experiment with VEEV TC83 and 51 to 150 nM in the experiment with WEEV California.

For the compound `COc1c(F)cc(-n2c([C@H]3CCCN3)nc3c(-c4ccc(C)nc4)cc(C#N)cc3c2=O)cc1F` [Example 119, (R)-3-(3,5-difluoro-4-methoxyphenyl)-8-(6-methylpyridin-3-yl)-4-oxo-2-(pyrrolidin-2-yl)-3,4-dihydroquinazoline-6-carbonitrile], the EC50 in the experiment on VEEV TC83 and with WEEV California was 1 to 50 nM each time.

On to `COc1cccc(-c2cc(C#N)cc3c(=O)n(-c4ccc(OC)c(F)c4)c(C4CCCN4)nc23)c1` (stereo not drawn) [Example 148, 3-(3-Fluoro-4-methoxyphenyl)-8-(3-methoxyphenyl)-4-oxo-2-(pyrrolidin-2-yl)-3,4-dihydroquinazoline-6-carbonitrile], for which the 50% effective concentration (EC50) in the experiment with VEEV TC83 and with WEEV California was 1 to 50 nM in each case.

For the compound `Cc1cc(-c2cc(C#N)cc3c(=O)n(-c4cc(F)c(NCC5(CO)COC5)c(F)c4)c(C4CCCN4)nc23)cc(C)n1` (stereo not drawn) [Example 164, 3-(3,5-difluoro-4-(((3-(hydroxymethyl)oxetan-3-yl)methyl)amino)phenyl)-8-(2,6-dimethylpyridin-4-yl)-4-oxo-2-(pyrrolidin-2-yl)-3,4-dihydroquinazoline-6-carbonitrile], the 50% effective concentration (EC50) with VEEV TC83 and in the experiment on WEEV California was 501 to 1000 nM throughout.

With `COc1ccc(-n2c([C@H]3CCCN3)nc3c(F)c(F)c(F)cc3c2=O)cc1` [Example 16, (R)-6,7,8-trifluoro-3-(4-methoxyphenyl)-2-(pyrrolidin-2-yl)quinazolin-4 (3H)-one], the results for the 50% effective concentration (EC50) in the experiment on VEEV TC83 and with WEEV California were 501 to 1000 nM and over 1000 nM, respectively.

In the case of `COc1ccc(-n2c([C@H]3CCCN3)nc3cc(C)c([N+](=O)[O-])cc3c2=O)cc1` [Example 43, (R)-3-(4-methoxyphenyl)-7-methyl-6-nitro-2-(pyrrolidin-2-yl) quinazolin-4 (3H)-one], the EC50 in the experiment on VEEV TC83 and in the experiment on WEEV California was 1 to 50 nM throughout.

Consider `COc1ccc(-n2c([C@@H]3CCCN3C)nc3c(C)cc([N+](=O)[O-])cc3c2=O)cc1F` [Example 70, (S)-3-(3-fluoro-4-methoxyphenyl)-8-methyl-2-(1-methylpyrrolidin-2-yl)-6-nitroquinazolin-4 (3H)-one], for which the EC50 with VEEV TC83 and in the experiment with WEEV California was 1 to 50 nM in each case.

As to `COc1ccc(-n2c(C3CCCN3)nc3c(-c4ccc(C(C)=O)nc4)cc(C#N)cc3c2=O)cc1F` (stereo not drawn) [Example 129, 8-(6-acetylpyridin-3-yl)-3-(3-fluoro-4-methoxyphenyl)-4-oxo-2-(pyrrolidin-2-yl)-3,4-dihydroquinazoline-6-carbonitrile], the EC50 in the experiment on VEEV TC83 and in the experiment on WEEV California was 1 to 50 nM throughout.

Turning to `COc1ccc(-n2c(C3CCCN3)nc3c(-c4ccc(CO)nc4)cc(C#N)cc3c2=O)cc1F` (stereo not drawn) [Example 181, 3-(3-fluoro-4-methoxyphenyl)-8-(6-(hydroxymethyl)pyridin-3-yl)-4-oxo-2-(pyrrolidin-2-yl)-3,4-dihydroquinazoline-6-carbonitrile], in the experiment on VEEV TC83, the concentration giving a half-maximal response (EC50) was in the range of 1 to 50 nM.

Turning to `COc1ccc(-n2c(C3CCCN3)nc3c(Oc4ccc(C)nc4)cc(C#N)cc3c2=O)cc1F` (stereo not drawn) [Example 191, 3-(3-fluoro-4-methoxyphenyl)-8-((6-methylpyridin-3-yl)oxy)-4-oxo-2-(pyrrolidin-2-yl)-3,4-dihydroquinazoline-6-carbonitrile], the 50% effective concentration (EC50) in the experiment with VEEV TC83 is 1 to 50 nM.

Regarding `COc1ccc(-n2c([C@@H]3CC(F)(F)CN3)nc3c(-c4ccc(C)nc4)cc(C#N)cc3c2=O)cc1F` [Example 183, (S)-2-(4,4-difluoropyrrolidin-2-yl)-3-(3-fluoro-4-methoxyphenyl)-8-(6-methylpyridin-3-yl)-4-oxo-3,4-dihydroquinazoline-6-carbonitrile], the concentration for a half-maximal effect (EC50) in the experiment on VEEV TC83 was 151 to 500 nM.

Turning to `COc1c(F)cc(-n2c(C3CCCN3)nc3c(-c4ccc(C(C)(C)O)nc4)cc(C#N)cc3c2=O)cc1F` (stereo not drawn) [Example 182, 3-(3,5-difluoro-4-methoxyphenyl)-8-(6-(2-hydroxypropan-2-yl)pyridin-3-yl)-4-oxo-2-(pyrrolidin-2-yl)-3,4-dihydroquinazoline-6-carbonitrile], in the experiment on VEEV TC83, the concentration for a half-maximal effect (EC50) fell in the range of 1 to 50 nM.

On to `COc1ncc(-n2c(C34CC(CN3)C4)nc3c(-c4ccc(C)nc4)cc(C#N)cc3c2=O)cn1` [Example 165, 2-(2-azabicyclo[2.1.1]hexan-1-yl)-3-(2-methoxypyrimidin-5-yl)-8-(6-methylpyridin-3-yl)-4-oxo-3,4-dihydroquinazoline-6-carbonitrile], for which the EC50 with VEEV TC83 was over 1000 nM.

With `COc1ccc(-n2c([C@@H]3C[C@@](O)(C(F)(F)F)CN3)nc3c(-c4ccc(C)nc4)cc(C#N)cc3c2=O)cc1F` [Example 192, 3-(3-fluoro-4-methoxyphenyl)-2-((2S,4S)-4-hydroxy-4-(trifluoromethyl)pyrrolidin-2-yl)-8-(6-methylpyridin-3-yl)-4-oxo-3,4-dihydroquinazoline-6-carbonitrile], the EC50 in the experiment with VEEV TC83 lay within 1 to 50 nM.

For `COc1ccc(-n2c(C34CC(CN3)C4)nc3c(-c4ccc(C)nc4)cc(C#N)cc3c2=O)cc1F` [Example 178, 2-(2-azabicyclo[2.1.1]hexan-1-yl)-3-(3-fluoro-4-methoxyphenyl)-8-(6-methylpyridin-3-yl)-4-oxo-3,4-dihydroquinazoline-6-carbonitrile], in the experiment with VEEV TC83, the EC50 was 1 to 50 nM.

On to `COc1ccc(-n2c([C@H]3CCCN3)nc3c(N4CCC(N5CCOCC5)CC4)cc(C#N)cc3c2=O)cc1F` [Example 179, (R)-3-(3-fluoro-4-methoxyphenyl)-8-(4-morpholinopiperidin-1-yl)-4-oxo-2-(pyrrolidin-2-yl)-3,4-dihydroquinazoline-6-carbonitrile], for which the half-maximal effective concentration (EC50) in the experiment with VEEV TC83 is 1 to 50 nM.

As to `COc1c(F)cc(-n2c(C3CCCN3)nc3c(-c4ccc(C(C)=O)nc4)cc(C#N)cc3c2=O)cc1F` (stereo not drawn) [Example 177, 8-(6-acetylpyridin-3-yl)-3-(3,5-difluoro-4-methoxyphenyl)-4-oxo-2-(pyrrolidin-2-yl)-3,4-dihydroquinazoline-6-carbonitrile], the EC50 in the experiment on VEEV TC83 lay within 1 to 50 nM.

Turning to `COc1ccc(-n2c(C3C[C@@H](OC)CN3)nc3c(-c4ccc(C)nc4)cc(C#N)cc3c2=O)cc1F` (stereo partly drawn) [Example 120, 3-(3-fluoro-4-methoxyphenyl)-2-((4R)-4-methoxypyrrolidin-2-yl)-8-(6-methylpyridin-3-yl)-4-oxo-3,4-dihydroquinazoline-6-carbonitrile], in the experiment on VEEV TC83, the EC50 lay in the range of 151 to 500 nM.

(Values after patent US20220348558A1, “INHIBITORS OF ENCEPHALITIC ALPHAVIRUSES” (priority 2019, published 2022).)
